Test results reported in patent publication US10897903B2, “Method for controlling PPO resistant weeds” (BASF SE, priority 2016, dated 2021).

Test system: w.1 AMATA Amaranthus tamariscinus, common waterhemp, sensitive biotype
Test: Greenhouse experiment, weed control of w.1 (Example 3)
Format: in vivo
Details: for Weed control (%) w.1: greenhouse, sensitive biotype

With `C#CCN1C(=O)C(F)(F)Oc2cc(F)c(-n3c(=O)n(C)c(=S)n(C)c3=O)cc21` [I.a.35] the “activity in words on sensitive weed w.1” value (summary of Example 3 table) was “very good activity”, the “Weed control (%) w.1” value (use rate 2 g/ha) was 99% and the “Weed control (%) w.1” value (use rate 4 g/ha) was 100%.
